Experimental data taken from article PMC4965013, “Open Source Drug Discovery with the Malaria Box Compound Collection for Neglected Diseases and Beyond” (PLoS Pathogens, 2016).
Read-outs that look alike come from different tables or passages of the source.

Tests used:
[1] = test system: P. falciparum Dd2; assay: Malaria Sybr Green I Fluorescence assay Dd2 Horrocks; assay type: cell-based; details: Plasmodium falciparum, DD2, 48 h; read-out: P. falciparum Dd2 asexual blood stage EC50 Horrocks
Description: Column S: Horrocks group (data presented first in this paper). Asexual Dd2 inhibition of growth (IC50s): IC50 for the Dd2 clone of Plasmodium falciparum were determined using the Malaria Sybr Green I Fluorescence assay. Drug assays were initiated using a 2% trophozoite stage parasitaemia and 2% hematocrit and fluorescence measured after 48 h as fully described in Hasenkamp et al.[53]. Log dose-response curves were plotted in GraphPad Prism (v5.0). The controls for Dd2 using our 48hr Sybr Green I assay were (rounded to nearest nM): Chloroquine 209nM, Mefloquine 11nM, Quinine 246nM, Dihydroartemisinin 4nM, Artemether 10nM, Atovaquone 3nM.

[2] = test system: P. falciparum 3D7 trophozoites; assay: Metabolomic fingerprint profiling LC-MS; assay type: cell-based, Plasmodium falciparum; parameters: UDP-D-glucose / ADP-D-glucose: unit not given here; details: for Acetyllysine / N-acetyl-L-ornithine / N-carbamoyl-L-aspartate / NADPH / dAMP / dCMP / dTDP / dTMP / dTTP / dihydroorotate / orotate / DLH / DLS/SDL/SID / PD / PEE / PVNF / 3-phosphoglycerate / ADP-D-glucose / ATP / CDP / D-sedoheptulose-1/7-phosphate / FAD / GMP / NAD+ / NADP+ / Octoluse Bisphosphate / Pyroglutamic acid / UDP-D-glucose / UDP-D-glucuronate / UDP-N-acetyl-glucosamine / UDP / UMP / UTP / a-ketoglutarate / citrate/isocitrate / cytidine / dATP / dGMP/AMP / fumarate / glucose-1/6-phosphate / glycerate / guanine / guanosine / hypoxanthine / indole / inosine / nicotinate / ornithine / phosphoenolpyruvate / pyruvate / ribose-phosphate / sarcosine/alanine / sn-glycerol-3-phosphate / succinate/methylmalonic acid / uridine / xanthosine: S2 Table Metabolomics; for Acetyllysine: metabolite Acetyllysine; for N-acetyl-L-ornithine: metabolite N-acetyl-L-ornithine; for N-carbamoyl-L-aspartate: metabolite N-carbamoyl-L-aspartate; for NADPH: metabolite NADPH; for dAMP: metabolite dAMP; for dCMP: metabolite dCMP; for dTDP: metabolite dTDP; for dTMP: metabolite dTMP; for dTTP: metabolite dTTP; for dihydroorotate: metabolite dihydroorotate; for orotate: metabolite orotate; for DLH: peptide DLH; for DLS/SDL/SID: peptide DLS/SDL/SID; for PD: peptide PD; for PEE: peptide PEE; for PVNF: peptide PVNF; for 3-phosphoglycerate: metabolite 3-phosphoglycerate; for ADP-D-glucose: metabolite ADP-D-glucose; for ATP: metabolite ATP; for CDP: metabolite CDP; for CDP / D-sedoheptulose-1/7-phosphate / GMP / Octoluse Bisphosphate / UDP / UMP / UTP / citrate/isocitrate / dGMP/AMP / fumarate / glucose-1/6-phosphate / glycerate / guanine / guanosine / inosine / pyruvate / sarcosine/alanine / succinate/methylmalonic acid / uridine / xanthosine: change in metabolite level after compound treatment; for D-sedoheptulose-1/7-phosphate: metabolite D-sedoheptulose-1/7-phosphate; for FAD: metabolite FAD; for GMP: metabolite GMP; for NAD+: metabolite NAD+; for NADP+: metabolite NADP+; for Octoluse Bisphosphate: metabolite Octoluse Bisphosphate; for Pyroglutamic acid: metabolite Pyroglutamic acid; for UDP-D-glucose: metabolite UDP-D-glucose; for UDP-D-glucuronate: metabolite UDP-D-glucuronate; for UDP-N-acetyl-glucosamine: metabolite UDP-N-acetyl-glucosamine; for UDP: metabolite UDP; for UMP: metabolite UMP; for UTP: metabolite UTP; for a-ketoglutarate: metabolite a-ketoglutarate; for citrate/isocitrate: metabolite citrate/isocitrate; for cytidine: metabolite cytidine; for dATP: metabolite dATP; for dGMP/AMP: metabolite dGMP/AMP; for fumarate: metabolite fumarate; for glucose-1/6-phosphate: metabolite glucose-1/6-phosphate; for glycerate: metabolite glycerate; for guanine: metabolite guanine; for guanosine: metabolite guanosine; for hypoxanthine: metabolite hypoxanthine; for indole: metabolite indole; for inosine: metabolite inosine; for 2_3-Diphosphoglyceric acid / 4-phosphopantothenate / 6-phospho-D-gluconate / FMN / IMP / Pyrophosphate / Sedoheptoluse bisphosphate / cyclic-AMP / glutathione disulfide / lactate / myo-inositol: metabolite level change after treatment; for nicotinate: metabolite nicotinate; for ornithine: metabolite ornithine; for phosphoenolpyruvate: metabolite phosphoenolpyruvate; for pyruvate: metabolite pyruvate; for ribose-phosphate: metabolite ribose-phosphate; for sarcosine/alanine: metabolite sarcosine/alanine; for sn-glycerol-3-phosphate: metabolite sn-glycerol-3-phosphate; for succinate/methylmalonic acid: metabolite succinate/methylmalonic acid; for uridine: metabolite uridine; for xanthosine: metabolite xanthosine
[3] = test system: P. falciparum; assay: EC50 listed in S2 Table Metabolomics (used to set the concentration tested); assay type: cell-based; details: Plasmodium falciparum; EC50 used for Factor_XEC50 in metabolomics; read-out: EC50_nM
[4] = test system: Naegleria fowleri trophozoites; assay: Naegleria fowleri CellTiter-Glo; assay type: cell-based; details: for EC50: Naegleria fowleri
Excerpt: Columns CY-CZ: Kyle group (data presented first in this paper). Naegleria fowleri trophozoite growth inhibition. Methods: The CellTiter-Glo (CTG) 2.0 luminescent assay is a quantitative assay that assesses the presence of cellular ATP in lysed cells, displaying an output in Relative Light Units (RLU’s). This was previously standardised, for the growth and development of Naegleria fowleri trophozoites in-vitro to assess drug susceptibility on this parasite. […] These included two drug-like molecules MMV665807 (St. Jude’s Children’s Hospital) and MMV665979 (The Genomics Institute of the Novartis Research Foundation - GNF) and two Probe-like molecules, MMV006203 (GNF) & MMV006172 (GNF; GlaxoSmithKline - GSK). […] However, these Malaria Box compounds were all toxic to zebrafish and mammalian cells.

[5] = test system: P. falciparum NF54 late-stage gametocytes; details: ref [61]; cited from earlier work
[6] = test system: P. falciparum 3D7; assay: [3H]-hypoxanthine growth inhibition, modified HCO3- or O2; assay type: cell-based; details: for IC50: Plasmodium falciparum

`O=C1C(O)=C([C@H]2CC[C@H](c3ccc(Cl)cc3)CC2)C(=O)c2ccccc21` [Atovaquone, reference compound] showed an EC50 [1] of 3 nM, an Acetyllysine [2] of -0.04735 and a N-acetyl-L-ornithine [2] of -0.04174. It also gave a N-carbamoyl-L-aspartate [2] of 3.574, an NADPH [2] of 0.3866 and a dAMP [2] of -0.09487. For the same molecule, the dCMP [2] was 0.3344, the dTDP [2] was -0.7104 and the dTMP [2] was -0.4179. For the same molecule, the dTTP [2] was -0.8198, the dihydroorotate [2] was 4.214 and the orotate [2] was -0.07211. For the same molecule, the DLH [2] was -0.06109, the DLS/SDL/SID [2] was -0.04893 and the PD [2] was 0.1235. For the same molecule, the PEE [2] was -0.1722, the PVNF [2] was -0.41 and the 3-phosphoglycerate [2] was 0.03739. The ADP-D-glucose [2] was 0.08423, the ATP [2] was 0.06271 and the CDP [2] was -0.5138. The D-sedoheptulose-1/7-phosphate [2] was 0.1418, the FAD [2] was 0.1027 and the GMP [2] was 0.1184. For the same molecule, the “NAD+” value [2] was 0.1854, the “NADP+” value [2] was 0.1184 and the “Octoluse Bisphosphate” value [2] was -0.059. For the same molecule, the Pyroglutamic acid [2] was 0.08924, the UDP-D-glucose [2] was 0.001015 and the UDP-D-glucuronate [2] was -0.0616. It also gave a UDP-N-acetyl-glucosamine [2] of -0.1593, a UDP [2] of -0.7439 and a UMP [2] of -0.8555. It also gave a UTP [2] of -1.1527, an a-ketoglutarate [2] of -0.0182 and a citrate/isocitrate [2] of -0.0966. The cytidine [2] was 0.2964, the dATP [2] was 0.2506 and the dGMP/AMP [2] was -0.116. It also gave a fumarate [2] of 0.379, a glucose-1/6-phosphate [2] of 0.3695 and a glycerate [2] of 0.1345. The guanine [2] was 0.3762, the guanosine [2] was 0.6121 and the hypoxanthine [2] was 0.2162. It also gave an indole [2] of 0.1728, an inosine [2] of 0.1672 and a 2_3-Diphosphoglyceric acid [2] of -0.09802. For the same molecule, the 4-phosphopantothenate [2] was -0.2334, the 6-phospho-D-gluconate [2] was 0.01237 and the FMN [2] was -0.003621. The IMP [2] was 0.3101, the Pyrophosphate [2] was -0.1571 and the Sedoheptoluse bisphosphate [2] was 0.01404. The cyclic-AMP [2] was -0.03093, the glutathione disulfide [2] was 0.00323 and the lactate [2] was 0.02673. The myo-inositol [2] was 0.3272, the nicotinate [2] was 0.1461 and the ornithine [2] was 0.1076. For the same molecule, the phosphoenolpyruvate [2] was 0.02037, the pyruvate [2] was -0.07747 and the ribose-phosphate [2] was 0.1578. The sarcosine/alanine [2] was -0.1241, the sn-glycerol-3-phosphate [2] was 0.1524 and the succinate/methylmalonic acid [2] was -0.1814. The uridine [2] was -0.1824, the xanthosine [2] was 0.05904 and the EC50 [3] was 1 nM.

In the case of `OC(c1cc(C(F)(F)F)nc2c(C(F)(F)F)cccc12)C1CCCCN1` (stereo not drawn) [Mefloquine], the EC50 [1] is reported as 11 nM.

In the case of `FC(F)(F)c1cccc(CNC2CCN(CCc3ccccc3)CC2)c1` [MMV665979], the “Naegleria fowleri hit in words” value [4] is reported as “outstanding hit” and the EC50 [4] is reported as 190 nM.

Molecule `CO[C@H]1O[C@@H]2O[C@@]3(C)CC[C@H]4[C@H](C)CC[C@@H]([C@H]1C)[C@@]24OO3` [Artemether] has an EC50 [1] of 10 nM.

Molecule `C=C[C@H]1C[N@@]2CC[C@H]1C[C@H]2[C@H](O)c1ccnc2ccc(OC)cc12` [Quinine] has an EC50 [1] of 246 nM.

In the case of `CCN(CC)CCn1c(=N)n(CC(O)c2ccc(Cl)c(Cl)c2)c2ccccc21` (stereo not drawn) [MMV000248], the IC50 [5] is listed as less than 350 nM.

In the case of `Cc1cc(NCCN2CCCCC2)c2ccc3ccccc3c2n1` [MMV006203], the “fold change (IC50normal/ IC50hypoxia)” value [6] is reported as 3.7, the IC50 ([6]; 3D7, read-out: P. falciparum 3D7 IC50 1% O2, 1% O2 hypoxia) is reported as 132 nM and the IC50 ([6]; 3D7, read-out: P. falciparum 3D7 IC50 5% O2) is reported as 489 nM. It also gave an EC50 [4] of 420 nM, an Acetyllysine [2] of 0.08786 and a N-acetyl-L-ornithine [2] of 0.002896. It also gave a N-carbamoyl-L-aspartate [2] of 0.4112, an NADPH [2] of 0.03038 and a dAMP [2] of 0.7397. It also gave a dCMP [2] of 0.2991, a dTDP [2] of 0.8216 and a dTMP [2] of 0.8444. It also gave a dTTP [2] of 0.2113, a dihydroorotate [2] of 0.4914 and an orotate [2] of 0.1057. The DLH [2] was -0.3111, the DLS/SDL/SID [2] was -0.5497 and the PD [2] was -0.2642. The PEE [2] was -0.1431, the PVNF [2] was -0.3001 and the 3-phosphoglycerate [2] was -0.2573. For the same molecule, the ADP-D-glucose [2] was 0.2156, the ATP [2] was -0.6838 and the CDP [2] was 0.8402. It also gave a D-sedoheptulose-1/7-phosphate [2] of 0.9147, an FAD [2] of 0.06173 and a GMP [2] of -0.5622. The “NAD+” value [2] was -0.01124, the “NADP+” value [2] was 0.01586 and the “Octoluse Bisphosphate” value [2] was -0.09172. It also gave a Pyroglutamic acid [2] of -0.7767, a UDP-D-glucose [2] of 0.04255 and a UDP-D-glucuronate [2] of -0.09689. The UDP-N-acetyl-glucosamine [2] was 0.1138, the UDP [2] was 0.8936 and the UMP [2] was -0.4956. It also gave a UTP [2] of -0.4083, an a-ketoglutarate [2] of -0.4253 and a citrate/isocitrate [2] of -0.3127. The cytidine [2] was -0.1848, the dATP [2] was -0.6172 and the dGMP/AMP [2] was 0.6443. It also gave a fumarate [2] of -0.3628, a glucose-1/6-phosphate [2] of 0.2347 and a glycerate [2] of -0.4315. The guanine [2] was 0.07764, the guanosine [2] was -0.09005 and the hypoxanthine [2] was -0.3483. It also gave an indole [2] of -0.1837, an inosine [2] of -0.08456 and a 2_3-Diphosphoglyceric acid [2] of 0.4386. For the same molecule, the 4-phosphopantothenate [2] was 0.2283, the 6-phospho-D-gluconate [2] was 0.1112 and the FMN [2] was 0.1526. The IMP [2] was 0.332, the Pyrophosphate [2] was 0.424 and the Sedoheptoluse bisphosphate [2] was -0.2408. The cyclic-AMP [2] was -0.2974, the glutathione disulfide [2] was 0.042 and the lactate [2] was -0.2642. The myo-inositol [2] was -0.268, the nicotinate [2] was -0.1416 and the ornithine [2] was -0.3267. For the same molecule, the phosphoenolpyruvate [2] was -0.2017, the pyruvate [2] was -0.1834 and the ribose-phosphate [2] was -0.417. The sarcosine/alanine [2] was 0.1849, the sn-glycerol-3-phosphate [2] was -0.1322 and the succinate/methylmalonic acid [2] was -0.1409. The uridine [2] was -0.04629, the xanthosine [2] was -0.705 and the EC50 [3] was 300 nM.
